Results as given in patent US20220378739A1, “NATURAL KILLER CELL IMMUNOTHERAPY FOR THE TREATMENT OF GLIOBLASTOMA AND OTHER CANCERS” (BOARD OF REGENTS, THE UNIVERSITY OF TEXAS SYSTEM, priority 2019, published 2022).
Entries after “also recorded” stand apart in the source; their conditions may differ.

Columns and labels:
[1] = test system: TiNKs / HC-NK cells rendered dysfunctional by GSCs; experiment: Reversal of established NK cell dysfunction (TiNKs ex vivo; NK cell recovery assays); assay type: cell-based, human
Procedure: FIGS. 11A-11G. […] (FIG. 11A) NK cells were incubated with or without galunisertinib (10 μM) or LY2109761 (10 μM) for 48 hours. Representative zebra plots show their CD107a, IFN-γ, and TNF-α response to K562 targets. NK cells were gated on CD3-CD56+ lymphocytes. Inset numbers are the percentages of CD107a-, IFN-γ- or TNF-α-positive NK cells within the gated NK cell population. (FIGS. 11B-11C) NK cells were cultured either alone or with GSCs in a 1:1 ratio with or without LY2109761 or galunisertib for 48 hrs. Representative zebra plots and summary box plots show their CD107, IFN-γ, and TNF-α expression response to K562 (FIG. 11B) or GSC (FIG. 11C) targets. Effector:target ratio is 5:1. NK cells were defined as CD3-CD56+ lymphocytes. Inset numbers are the percentages of CD107a-, IFN-γ- or TNF-α-positive NK cells (n=7, n=4 respectively). (FIG. 11D) TiNK cells were cultured for 24 hours in media with 5 ng/ml IL-15 with or without galunisertib. Representative zebra plots and bar graph summary show their CD107, IFN-γ, and TNF-α response to K562 targets. Effector:target ratio is 5:1. NK cells were gated on CD3-CD56+ lymphocytes. Inset numbers are the percentages of CD107a-, IFN-γ- or TNF-α-positive NK cells within the indicated regions. (n=3). (FIG. 11E) TiNK cells and paired PB-NK cells from GBM patients were cultured in the presence or absence of galunisertib for 12 hours. The bar graphs summarize the mean fluorescence intensity (MFI) for their p-Smad⅔ expression. Paired t test was performed to determine statistical significance (n=3). (FIG. 11F) Specific lysis (^51Cr release assay) of K562 targets by NK cells. After 48 hours of culture alone (blue lines) or with GSCs, healthy donor NK cells were either left with GSCs (red lines), or purified and re-suspended in media for another 48 hours (black lines). NK cells were then collected and used for ^51Cr release assay (n=4). (FIG. 11G) Specific lysis (^51Cr release assay) of K562 targets by NK cells. After 48 hours of culture alone (blue lines) or with GSCs, healthy donor NK cells were either left with GSCs ([…]) or purified and cultured in SCGM media plus 5 ng/ml IL-15 with (black lines) or without galunisertib (10 μM) (gray lines) for […]. At the end of the culture period, their cytotoxicity was tested against k562 targets by ^51Cr release assay (n=4).
NK cells were cultured either with GSCs in a 1:1 ratio or alone for 48 hours. After 48 hours of co-incubation, NK cells were then either purified again by bead selection and resuspended in SCGM media or remained in culture with GSCs for an additional 48 hours and then used for ^51Cr release assay. In a second assay, after reselection, NK cells were cultured for another 5 days in SCGM in the presence of 5 ng/ml IL-15 with or without 10 μM galunisertib before use for ^51Cr release assay.

[2] = test system: TGF-β1 Smad⅔ signaling pathway in NK cells; experiment: Phospho-Smad⅔ assay in NK cells co-cultured with GSCs; assay type: cell-based, human; details: for p-Smad⅔ expression (MFI) in NK cells co-cultured with GSCs: healthy control NK cells + GSCs, inhibitor 10 μM
Procedure: (§1) GSCs and purified NK cells were co-cultured for 48 hours in the presence of anti-TGFβ 123 (5 μg/ml) (R&D), HLA-ABC blocking antibody (clone W 6/32, Biolegend), CD44 blocking antibody (clone IM7, Biolegend), ILT-2 (CD85J) blocking antibody (clone HP-F1, ThermoFisher), CD155 blocking antibody (clone D171, GenTex), CD112 blocking antibody (clone TX31, Biolegend), 10 μM LY2109761, 10 μM galunisertib (LY2157299), 10 μM Cilengitide (Cayman Chemical) or 1 μM MMP-2/MMP-9 inhibitor I (Millipore). Cytotoxicity assays were then performed as described above.
NK cells were stained with Live/dead-aqua and CD56 ECD (Beckman Coulter) for 20 min in the dark at RT, washed with PBS fixed for 10 min in the dark. After one wash, the cells were permeabilized (Beckman Coulter kit) and stained with p-(5465/5467)-Smad2/p-(5423/5425)/Smad3-Alexa 647 mAb Phosflow antibody (BD Biosciences) for 30 minutes at room temperature. Cells incubated with 10 ng/ml recombinant TGF-β for 45 minutes in 37° C. were used as positive control.

[3] = test system: K562 targets; assay type: cell-based, human; details: 48 hours
Procedure: (§2) NK cells were co-cultured for 5 hours with K562 or GSCs target cells at an optimized effector:target ratio of 5:1 together with CD107a PE-CF594 (BD Biosciences), monensin (BD GolgiStopTM) and BFA (Brefeldin A, Sigma Aldrich). NK cells were incubated without targets as the negative control and stimulated with PMA (50 ng/mL) and ionomycin ([…], Sigma Aldrich) as positive control. Cells were collected, washed and stained with surface antibodies (mentioned above), fixed/permeabilized (BD Biosciences) and stained with IFN-7 v450 and TNF-α Alexa700 (BD Biosciences) antibodies.
(§3) NK cell cytotoxicity was assessed using chromium (siCr) release assay. Briefly, K562 or GSCs target cells were labeled with siCr (PerkinElmer Life Sciences, Boston, Mass.) at 50 μCi/5×10^5 cells for 2 hours. ^51Cr-labeled K562/GSC targets (5×105) were incubated for 4 h with serially diluted magnetically isolated NK cells in triplicate. Supernatants were then harvested and analysed for ^51Cr content.
For studies of NK cell suppression by GSCs and human astrocytes, magnetically selected healthy NK cells were cultured in Serum-free Stem Cell Growth Medium (SCGM; CellGro/CellGenix) supplemented with 5% glutamine, 5 μM HEPES (both from GIBCO/Invitrogen), and 10% FCS (Biosera) in 96-well flat-bottomed plates (Nunc) at 100,000/100D11. NK cells were co-cultured either alone (positive control) or with GSCs or astrocytes at a 1:1 ratio for 48 hours at 37° C. before performing functional assays to assess NK cells cytotoxicity.
as §1

[4] = test system: GSC targets; experiment: NK cell functional assay (51Cr release; CD107a, IFN-γ, TNF-α) against GSC targets after co-culture with GSCs; assay type: cell-based, human; details: 48 hours co-culture with GSCs 1:1; inhibitor 10 μM
Procedure: as §2, §3
For studies of NK cell suppression by GSCs and human astrocytes, magnetically selected healthy NK cells were cultured in Serum-free Stem Cell Growth Medium (SCGM; CellGro/CellGenix) supplemented with 5% glutamine, 5 μM HEPES (both from GIBCO/Invitrogen), and 10% FCS (Biosera) in 96-well flat-bottomed plates (Nunc) at 100,000/100D11. […]

[5] = test system: soluble TGF-β1; experiment: TGF-β ELISA of NK cell/GSC co-culture supernatant; assay type: cell-based, human; details: NK cells + GSCs, cilengitide 10 μM, 48 hours
Procedure: NK cells and GSCs were either co-cultured or cultured alone for 48 hours in serum free SCGM growth medium. After 48 hours, supernatants were collected and secretion of TGF R and MMP2/3/9 was assessed in the supernatant by TGFβ1 ELISA kit (R&D systems) or MMP2/3/9 luminex kit (eBiosciences) as per the manufacturer's protocol.

[6] = test system: patient-derived GSCs; experiment: Xenogeneic (PDX) NSG mouse model of GBM; assay type: in vivo
Procedure: To test this prediction, a PDX mouse model of patient-derived GSC was used, in which, ffLuc+ patient-derived GSCs (0.5×10^6) were stereotactically implanted on day 0 through a guide-screw into the right forebrain of NOD/SCID/IL2Rγc null mice (n=4-5 per group). After 7 days, the mice were treated intratumorally with 2.0×10^6 human NK cells every 7 days for 11 weeks (FIG. 5A) with either galunisertib to block the TGF-β signaling or cilengitide to block the integrin pathway. Galunisertib was administered five times a week by oral gavage and cilengitide three times a week by intraperitoneal injection. Animals implanted with tumor that were either untreated or received NK cells alone, galunisertib alone or cilengitide alone served as controls.
To assess the anti-tumor effect of NK cells against GSCs in vivo, a NOD/SCID IL-2R7null (NSG) human xenograft model (Jackson Laboratories, Bar Harbor, Me.) was used. Intracranial implantation of GSCs into male mice was performed as previously described^55. A total of 60 mice were used. 0.5×10^5 GSCs were implanted intracranially into the right frontal lobe of 5 week old NSG mice using a guide-screw system implanted within the skull. To increase uniformity of xenograft uptake and growth, cells were injected into 10 animals simultaneously using a multiport Microinfusion Syringe Pump (Harvard Apparatus, Holliston, Mass.). Animals were anesthetized with xylazine/ketamine during the procedure. For in vivo bioluminescent imaging, GSCs were engineered to express luciferase by lentivirus transduction. Kinetics of tumor growth was monitored using weekly bioluminescence imaging (BLI; Xenogen-IVIS 200 Imaging system; Caliper, Waltham, Mass.). Signal quantitation in photons/second (p/s) was performed by determining the photon flux rate within standardized regions of interest (ROI) using Living Image software (Caliper). […] expanded donor peripheral blood NK cells^56 were injected intracranially via the guide-screw at day 7 post tumor implantation, and then every 7 days for 11 weeks. Mice were treated with either cilengitide or galunisertib (both from MCE Med Chem Express, Monmouth Junction, NJ) in the presence or absence of intracranial NK cell injection. Cilengitide was administered intraperitoneally 3 times a week starting at day 1 (250 μg/100 μl PBS) while galunisertib was administered orally (75 mg/kg) by gavage 5 days a week starting at day 1 (see FIG. 5A). […]
Brain tissue specimens from untreated control mice, mice treated with either NK cells alone, cilengitide alone, galunisertib alone or with combination therapy of NK+ cilengitide or NK+ galunisertib were collected. […] Sections lacking tumor were also evaluated for evidence of meningoencephalitis using a Leica DM 2500 light microscope by a board-certified veterinary pathologist. […]

[7] = test system: NKG2D, CD9, CD103 on TiNKs; experiment: Flow cytometry of TiNKs extracted from mouse brain tumor; assay type: in vivo, mouse (NSG)
Source text: FIG. 20. […] Heat map representation of the surface markers NKG2D, CD9, CD103, PD-1 and CD69. Once the mice were sacrificed, the brain tissue was processed and TiNKs were extracted from the GBM tumor. The cells we then stained for the indicated surface markers and analyzed using flow cytometry. The expression is presented as percentage of the cells expressing each marker within the total NK cell population.
Brain tissue from the animals was collected and NK cells were isolated using a percoll (GE Healthcare) gradient fallowing protocol described by Pino et al^57. Briefly, brain tissue was dissociated using a 70 μm cell strainer (Life Science, Durham, N.C.). Cell suspension was re suspended in a 30% isotonic percoll solution and layer on top of a 70% isotonic percoll solution. Cells were centrifuged at 500 G for 30 minutes and 18 °C with no brake. 2-3 ml of the 70%-30% interface was collected in a clean tube and washed with PBS 1X. After this procedure, cells were ready for immunostaining with mouse CD45, human CD45, CD56, CD3, CD103, CD9, CD69, PD-1 and NKG2D all from Biolegend.

IL-15: activating cytokine
reversal of GSC-induced dysfunction of HC-NK cells ([1]; NK cells purified after 48 hours with GSCs, then IL-15 5 ng/ml with or without galunisertib 10 μM): did not reverse the dysfunction of HC-NK cells induced by GSCs | restoration of TiNK function (specific lysis of K562; CD107, IFN-γ, TNF-α) ([1]; TiNKs cultured 24 hours, galunisertib 10 μM or IL-15 5 ng/ml): failed to inactivate the TGF-β1 Smad⅔ signaling pathway and restore NK cell dysfunction | TGF-β1 Smad⅔ signaling in TiNKs ([1]; TiNKs from GBM patients cultured ex vivo, galunisertib 12 hours or IL-15): failed to inactivate the TGF-β1 Smad⅔ signaling pathway

O=C(O)[C@@H](Cc1ccccc1)NS(=O)(=O)c1ccc(-c2ccccc2)cc1 [MMP 2/9 inhibitor]
p-Smad⅔ levels in NK cells with MMP 2/9 inhibitor ([2]; NK cells with or without GSCs, inhibitor 1 μM): decreased p-Smad⅔ levels | NK cell function in cultures lacking GSCs ([3]; MMP 2/9 inhibitor 1 μM): did not affect NK cell function in cultures lacking GSCs

c1ccc(-c2nn3c(c2-c2ccnc4cc(OCCN5CCOCC5)ccc24)CCC3)nc1 [LY2109761]
p-Smad⅔ expression (MFI) in NK cells co-cultured with GSCs [2]: prevented GSCs from activating the TGF-β1 Smad⅔ signaling pathway in NK cells | NK cell function (CD107a, IFN-γ, TNF-α response to K562), NK cells without GSCs ([3]; NK cells alone, inhibitor 10 μM): neither inhibitor affected NK cell function | GSC-induced NK cell dysfunction: natural cytotoxicity against GSC targets [4]: preserving the natural cytotoxicity of NK cells against K562 or GSC targets

CC(C)[C@H]1C(=O)N[C@@H](CCCN=C(N)N)C(=O)NCC(=O)N[C@@H](CC(=O)O)C(=O)N[C@H](Cc2ccccc2)C(=O)N1C [cilengitide]
p-Smad⅔ expression (MFI) in NK cells co-cultured with GSCs [2]: significantly decreased; also recorded: diminished Smad⅔ phosphorylation | soluble TGF-β1 levels in supernatant [5]: significantly decreased levels of soluble TGF-β1; also recorded: decreased TGF-β production | tumor bioluminescence (BLI), first experiment ([6]; NK cells intratumorally every 7 days for 11 weeks, galunisertib oral 5 times a week, cilengitide i.p. three times a week): tumor bioluminescence rapidly increased | NK-mediated GBM killing / efficacy in PDX model of GBM (summary statements) ([6]; mouse, in vivo): enhances NK-mediated GBM killing in vivo | surface marker expression on TiNKs harvested after sacrifice [7]: protects NK cells from TGF-β induced inhibitory phenotype in vivo
